11 molecules from patent publication US10758534B2 (Vertex Pharmaceuticals Incorporated, priority 2014, dated 2020) can be followed below.

T1 sequence (P13569 with tags, fused parts or gaps DEL508-508): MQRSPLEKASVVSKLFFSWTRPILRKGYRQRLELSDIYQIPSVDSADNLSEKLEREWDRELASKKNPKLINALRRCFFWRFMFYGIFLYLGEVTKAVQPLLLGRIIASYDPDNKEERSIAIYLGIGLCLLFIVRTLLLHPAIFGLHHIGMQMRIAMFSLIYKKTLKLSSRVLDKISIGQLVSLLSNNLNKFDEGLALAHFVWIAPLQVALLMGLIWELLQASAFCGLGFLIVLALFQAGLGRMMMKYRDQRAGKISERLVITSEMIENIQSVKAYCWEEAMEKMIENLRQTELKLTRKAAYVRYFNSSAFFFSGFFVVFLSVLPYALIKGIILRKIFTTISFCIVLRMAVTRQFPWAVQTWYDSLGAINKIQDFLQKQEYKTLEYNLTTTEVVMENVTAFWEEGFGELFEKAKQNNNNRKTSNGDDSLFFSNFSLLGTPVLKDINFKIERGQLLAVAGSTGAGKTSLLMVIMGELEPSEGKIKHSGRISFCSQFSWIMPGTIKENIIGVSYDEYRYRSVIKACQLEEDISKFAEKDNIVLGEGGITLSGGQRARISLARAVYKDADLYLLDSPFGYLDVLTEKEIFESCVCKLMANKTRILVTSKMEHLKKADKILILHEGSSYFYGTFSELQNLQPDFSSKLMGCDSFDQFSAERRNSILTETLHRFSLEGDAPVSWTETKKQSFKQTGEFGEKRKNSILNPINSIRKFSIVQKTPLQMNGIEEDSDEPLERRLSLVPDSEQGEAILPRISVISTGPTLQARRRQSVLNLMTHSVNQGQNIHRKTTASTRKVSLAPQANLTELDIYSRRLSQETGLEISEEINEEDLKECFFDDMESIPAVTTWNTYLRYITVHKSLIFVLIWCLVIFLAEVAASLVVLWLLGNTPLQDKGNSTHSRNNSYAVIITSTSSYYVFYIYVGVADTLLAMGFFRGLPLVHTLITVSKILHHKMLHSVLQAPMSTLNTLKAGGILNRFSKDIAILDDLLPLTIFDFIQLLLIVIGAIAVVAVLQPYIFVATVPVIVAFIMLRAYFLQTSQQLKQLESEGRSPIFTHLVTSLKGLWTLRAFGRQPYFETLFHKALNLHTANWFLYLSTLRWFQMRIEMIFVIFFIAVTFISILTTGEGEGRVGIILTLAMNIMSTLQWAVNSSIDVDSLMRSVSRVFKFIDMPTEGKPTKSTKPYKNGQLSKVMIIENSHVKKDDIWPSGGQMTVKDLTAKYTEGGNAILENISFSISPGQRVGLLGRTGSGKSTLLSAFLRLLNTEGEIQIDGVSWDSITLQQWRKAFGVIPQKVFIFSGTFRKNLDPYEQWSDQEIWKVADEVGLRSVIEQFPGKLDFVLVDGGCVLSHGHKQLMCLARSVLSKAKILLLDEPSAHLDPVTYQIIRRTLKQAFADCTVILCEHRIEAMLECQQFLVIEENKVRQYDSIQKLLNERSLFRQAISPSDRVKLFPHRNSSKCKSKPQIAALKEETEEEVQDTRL

The first assay concerns the target T1, F508del (Homo sapiens, UniProt P13569, DEL508-508).
T1 construct: expressed in transfected cells
As to the kind of experiment: Protocol 2: FRET membrane potential optical assay (VIPR), identification of correction compounds. It is filed as cell-based. Conditions: F508del CFTR modulator activity; compounds of Table 1; read-out: EC30. In outline:
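NIH3T3 mouse fibroblasts stably expressing F508del-CFTR incubated with compound 16 h at 37 °C in serum-free medium, then loaded with CC2-DMPE/DiSBAC2(3) FRET dyes. Channel activated with 10 μM forskolin plus 20 μM genistein in Cl⁻-free (gluconate) bath; depolarisation from Cl⁻ efflux read on VIPR II.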
By EC30 is commonly meant the concentration at which the effect reaches the 30% level. Regarding `C[C@@H]1CN(c2nc(C3=CCCN(C(=O)NC(C)(C)C)C3)ccc2C(=O)NS(=O)(=O)c2cccc(N)n2)C(C)(C)C1` [Compound 2568, N-[(6-amino-2-pyridyl)sulfonyl]-6-[1-(tert-butylcarbamoyl)-3,6-dihydro-2H-pyridin-5-yl]-2-[(4S)-2,2,4-trimethylpyrrolidin-1-yl]pyridine-3-carboxamide], the EC30 lay within 3 to 10 µM.

`COc1c(F)cc(-c2ccc(C(=O)NS(=O)(=O)c3cccnc3N)c(N3C[C@@H](C)CC3(C)C)n2)cc1F` [Compound 2457, N-[(2-amino-3-pyridyl)sulfonyl]-6-(3,5-difluoro-4-methoxy-phenyl)-2-[(4S)-2,2,4-trimethylpyrrolidin-1-yl]pyridine-3-carboxamide]: the 30% effect concentration (EC30) was less than 3 µM.

For `Cc1ccc(-c2ccc(C(=O)NS(=O)(=O)c3ccc[nH]c3=O)c(N3C[C@@H](C)CC3(C)C)n2)c(F)c1` [Compound 2000, 6-(2-fluoro-4-methyl-phenyl)-N-[(2-oxo-1H-pyridin-3-yl)sulfonyl]-2-[(4S)-2,2,4-trimethylpyrrolidin-1-yl]pyridine-3-carboxamide], the concentration for an effect of 30% (EC30) was less than 3 µM.

For the molecule `CC(C)COc1cc(F)cc(-c2ccc(C(=O)NS(=O)(=O)N3CC4CCC(C3)N4)c(N3C[C@@H](C)CC3(C)C)n2)c1` [Compound 2237, N-(3,8-diazabicyclo[3.2.1]octan-3-ylsulfonyl)-6-(3-fluoro-5-isobutoxy-phenyl)-2-[(4S)-2,2,4-trimethylpyrrolidin-1-yl]pyridine-3-carboxamide], the EC30 is less than 3 µM.

Still in this assay, the particulars now being: Table 3; compounds of Table 1 as modulators of CFTR activity; protocol not stated.
`Cc1cccc(C)c1Cn1nc(C(C)(C)C)cc1C(=O)NS(=O)(=O)c1ccccc1N` [Compound 88, N-(2-aminophenyl)sulfonyl-5-tert-butyl-2-[(2,6-dimethylphenyl)methyl]pyrazole-3-carboxamide]: the EC30 entry is on record as “+++ (“+++” means <3 uM)”.

With `CC(C)CC(C)Oc1cc(-c2ccc(C(=O)NS(=O)(=O)c3cccc(N)n3)c(N3CC(C)CC3(C)C)n2)ccn1` (centres unmarked) [Compound 384, N-[(6-amino-2-pyridyl)sulfonyl]-6-[2-(1,3-dimethylbutoxy)-4-pyridyl]-2-(2,2,4-trimethylpyrrolidin-1-yl)pyridine-3-carboxamide], the EC30 result is recorded as “+++ (“+++” means <3 uM)”.

`Cc1cc(C)c(Oc2nc(-c3ccc4c(c3)OCCCO4)ccc2C(=O)NS(=O)(=O)c2cccc(N)n2)c(C)c1` [Compound 14, N-[(6-amino-2-pyridyl)sulfonyl]-6-(3,4-dihydro-2H-1,5-benzodioxepin-7-yl)-2-(2,4,6-trimethylphenoxy)pyridine-3-carboxamide]: the EC30 entry is “+++ (“+++” means <3 uM)”.

Turning to `COc1cc(F)cc(-c2ccc(C(=O)NS(=O)(=O)c3ccc[nH]c3=O)c(Oc3c(C)cc(C)cc3C)n2)c1` [Compound 652, 6-(3-fluoro-5-methoxy-phenyl)-N-[(2-oxo-1H-pyridin-3-yl)sulfonyl]-2-(2,4,6-trimethylphenoxy)pyridine-3-carboxamide], the EC30 result is “++ (“++” means between 3 uM and 10 uM)”.

For the molecule `COc1cc(F)cc(-c2ccc(C(=O)NS(=O)(=O)c3cccc(N)n3)c(Oc3c(C)cc(C)cc3C)n2)c1` [Compound 682, N-[(6-amino-2-pyridyl)sulfonyl]-6-(3-fluoro-5-methoxy-phenyl)-2-(2,4,6-trimethylphenoxy)pyridine-3-carboxamide], the EC30 result is on record as “+++ (“+++” means <3 uM)”.

For `Cc1ccc(-c2nc(C(C)(C)C)ccc2C(=O)NS(=O)(=O)c2ccc(N)nc2)cc1` [Compound 702, N-[(6-amino-3-pyridyl)sulfonyl]-6-tert-butyl-2-(p-tolyl)pyridine-3-carboxamide], the EC30 result was “++ (“++” means between 3 uM and 10 uM)”.

With `COc1cccc(-c2ccc(C(=O)NS(=O)(=O)c3cccc(N)n3)c(Oc3c(C)cc(C)cc3C)n2)c1F` [Compound 661, N-[(6-amino-2-pyridyl)sulfonyl]-6-(2-fluoro-3-methoxy-phenyl)-2-(2,4,6-trimethylphenoxy)pyridine-3-carboxamide], the EC30 result was “+++ (“+++” means <3 uM)”.
